{"source": "patent US4997818A", "about": "“Therapeutic method for selectively treating terminal deoxynucleotidyl transferase-positive neoplastic leukemias and lymphomas” (The University Hospital, priority 1989, dated 1991)", "key": {"[1]": {"molecular_target": "T1, terminal deoxynucleotidyl transferase (TdT) (Bos taurus, UniProt P06526)", "T1 construct": "purchased DuPont/NEN Products, Boston, Massachusetts; host or cells: calf thymus", "T1 sequence (P06526 whole entry)": "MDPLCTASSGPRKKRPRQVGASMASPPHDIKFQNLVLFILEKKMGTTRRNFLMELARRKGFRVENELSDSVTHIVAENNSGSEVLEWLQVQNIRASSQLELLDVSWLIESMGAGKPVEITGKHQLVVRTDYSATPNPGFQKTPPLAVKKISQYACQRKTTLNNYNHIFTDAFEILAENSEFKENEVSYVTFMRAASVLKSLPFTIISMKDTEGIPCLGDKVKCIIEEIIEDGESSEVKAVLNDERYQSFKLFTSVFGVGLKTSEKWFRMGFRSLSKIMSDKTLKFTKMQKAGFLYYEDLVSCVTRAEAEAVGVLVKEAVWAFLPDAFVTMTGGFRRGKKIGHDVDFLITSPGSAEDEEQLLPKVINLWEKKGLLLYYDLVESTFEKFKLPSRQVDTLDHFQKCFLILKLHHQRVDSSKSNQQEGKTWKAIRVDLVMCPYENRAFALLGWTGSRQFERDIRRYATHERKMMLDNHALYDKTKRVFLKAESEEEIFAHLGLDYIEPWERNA", "test": "TdT enzyme assay (3H-dGTP incorporation)", "type": "biochemical, calf", "procedure": "(§1) Initially, the effect of various ddNTPs on TdT and DNA polymerase alpha was evaluated. DNA polymerase alpha, purified from calf thymus according to Kornberg [DNA Replication, W.H. Freeman and Company, 1980, p 206]and Wahl et al. [Biochemistry 23:1895 (1984)] was purchased from Pharmacia, Inc. (Piscataway, N.J.). TdT, purified from calf thymus, was purchased from DuPont/NEN Products, Boston, Massachusetts). Enzyme assays were conducted at 37 C. under conditions established to be optimal for each assay. For DNA polymeraseα, 0.1 ml of reaction mixture contained: 0.05 M tris-HCl (pH 8.3); 4 mM dithiothreitol; 4 mM MgCl; 10 ug poly(dAT); 0.05 mM ^3 H-dATP; 0.05 mM dTTP; and 0.05 units of enzyme. For TdT assays, 0.1 ml of standard reaction mixture contained: 0.05 M tris-HCl (pH 8.3); 2 mM dithiothreitol; 0.6 mM MnCl; 20 ug oligo(dA) 50; 0.1 mM ^3 H-dGTP; and 0.5 units of TdT.\nFor these studies, ddNTPs were dissolved in deionized distilled water and added to the respective reaction mixtures at time zero to give the effective final concentrations. The degree of reaction or inhibition was calculated from simultaneous control reactions. The mode of inhibition and inhibition constants were determined using Linweaver-Burke and Dixon plots. Each of the respective reactions was stopped using 0.5 ml of cold (4 C) 0.1 M sodium pyrophosphate containing 1 mg/ml yeast RNA (hereinafter\"NaPP\") and precipitated with 0.5 ml of cold 25% trichloroacetic acid (hereinafter \"TCA\"). The precipitates centrifuged at 13,000×gravity in a microfuge for one minute; resolubilized in 0.2 ml of 0.3M NaOH; and then reprecipitated with NaPP and TCA. Following a second 0.3 M NaOH resolubilization, 10 ml of scintiverse II (Fisher Scientific Company, Fairlawn, N.J.) was added to each sample for counting in a Beckman LS3700 liquid scintillation counter.\n(§2) It should be noted also that for certain TdT assays, a variety of different initiators were used in place of oligo (dA) 50. These included: activated DNA; 5'-^32 T-GTCCGTCTCTGCCTC-3' (15 MER synthesized on an automated synthesizer using standard phosphoramidite chemistry having a ^32 P-end labeled by a standard Maxam-Gilbert reaction); YEP-FG-2-plasmid DNA; oligo (dC) 18; oligo (dT) 18; and various ^3 H-substrates such as dCTP, dATP, and dTTP in place of ^3 H-dGTP. Reactions utilizing the 15 MER initiator contained either 5 mM MgCl2 or 1 mM CoCl2 in place of MnCl2."}, "[2]": {"system": "fresh leukemia cell cultures", "test": "Ex-vivo viability of fresh leukemia cells from patients (trypan blue)", "type": "cell-based, human", "settings": "30 uM CF alone, two instances", "source_text": "Leukemic blast cells from bone marrow or peripheral blood were obtained from 12 patients; of these, six persons were diagnosed as afflicted with acute lymphatic leukemia; three persons were diagnosed as afflicted with acute myeloblastic leukemia; two persons were diagnosed as afflicted with blastic chronic myelogenous leukemia; and one person was diagnosed as having acute myelogenous leukemia, complicating multiple myeloma. These diagnoses were based upon standard clinical and laboratory criteria. In ten of these twelve patients, blast cells constituted more than 75% of the mononuclear cells. In the eleventh and twelfth patients, 32% and 42% of the mononuclear cells were blast cells.\nThe leukemic cells from each person were enriched on Ficoll-Hypaque medium; washed in phosphate-buffered saline without divalent cations; resuspended in RPMI-1640 medium containing 20% FCS; and then grown in RPMI-1640 media supplemented with 10% FCS. The TdT status of each cell sample was independently determined by conventional biochemical assay before culturing. […] The six TdT-positive cases all had acute lymphoblastic leukemia.\nExperimentally, all twelve fresh leukemia cell cultures were continuously exposed ex-vivo to 250 uM of ddA and 30 uM of CF for 72 hours. Each was then individually evaluated for viability as determined by trytan blue staining. The empirical results are illustrated by FIG. 6. […]"}, "L1210": {"system": "L1210", "test": "Growth inhibition, viable cell count by trypan blue exclusion", "type": "cell-based", "settings": "Mus musculus; L1210, TdT negative, 48 hour continuous exposure", "procedure": "(§3) Each cell line was utilized in exponential growth phase. For test purposes, cells were seeded at […] cells/ml in T25 flasks containing 4 ml of culture medium. Cell counts were made using a hemocytometer. Cell viability was determined using the tryptan blue dye exclusion method. The degree of growth inhibition was calculated by comparison with untreated controls.\n(§4) Initially, the effect of a 48 hour continuous exposure to 250 uM and 500 uM of ddA upon four TdT-positive and three TdT-negative cell lines was evaluated.\n(§5) The growth inhibition data of Table V is defined as the ratio of viable cells in the ddA exposed cultures in comparison to control cultures. Each determination reflects the mean of triplicate flasks. It is noted that at 250 uM of ddA, there was marked growth inhibition (30-80%) in all four TdT-positive cell lines whereas there was very little effect among the TdT-negative cells (0-15% growth inhibition). At 500 uM of ddA, the cytotoxicity in the TdT-positive lines was further increased (92-99% growth inhibition). At this concentration level, 2 of the 3 TdT-negative lines also show measureable growth inhibition (40-50%)."}, "TdT-negative cell lines": {"system": "TdT-negative cell lines", "test": "Growth inhibition, summary over TdT-negative cell lines", "type": "cell-based", "settings": "48 hour", "procedure": "as §3, §4, §5"}, "TdT-positive cell lines": {"system": "TdT-positive cell lines", "test": "Growth inhibition, summary over TdT-positive cell lines", "type": "cell-based", "settings": "48 hour", "procedure": "as §3, §4, §5\n(§6) As a result, another series of experiments was conducted in which the non-selective purinogenic cytotoxicity was reduced. […]"}, "ML3": {"system": "ML3", "test": "Growth inhibition, viable cell count by trypan blue exclusion", "type": "cell-based", "settings": "Homo sapiens; ML3, TdT negative, 48 hour continuous exposure", "procedure": "as §3, §4, §5\n(§7) As a result, another series of experiments was conducted in which the non-selective purinogenic cytotoxicity was reduced. In this experimental series, a variety of different cell lines were pre-incubated for 30 minutes with the adenosine deaminase inhibitor, coformycin (CF). This CF exposure was then followed by a continuous 48 hour exposure to 250 uM ddA with suitable controls. Growth inhibition was defined as the ratio of viable cells in the CF/ddA exposed cell cultures in comparison to control cultures. Each determination reflects the mean of quadruplicate flasks. The results are provided by FIG. 3 and Table VI respectively."}, "8392": {"system": "8392", "test": "Growth inhibition, viable cell count by trypan blue exclusion", "type": "cell-based", "settings": "Homo sapiens; 8392, TdT negative, 48 hour continuous exposure", "procedure": "as §3, §4, §5, §7"}, "NALM-6": {"system": "NALM-6", "test": "Growth inhibition, viable cell count by trypan blue exclusion", "type": "cell-based", "settings": "Homo sapiens; NALM-6, TdT positive, 48 hour continuous exposure", "procedure": "as §3, §4, §5, §7"}, "HPB-ALL": {"system": "HPB-ALL", "test": "Growth inhibition, viable cell count by trypan blue exclusion", "type": "cell-based", "settings": "Homo sapiens, HPBALL, TdT positive, 48 hour continuous exposure", "procedure": "as §3, §4, §5, §7"}, "MOLT-4": {"system": "MOLT-4", "test": "Growth inhibition, viable cell count by trypan blue exclusion", "type": "cell-based", "settings": "Homo sapiens; MOLT-4, TdT positive, 48 hour continuous exposure", "procedure": "as §3, §4, §5, §7"}, "298-26": {"system": "298-26", "test": "Growth inhibition, viable cell count by trypan blue exclusion", "type": "cell-based, Murine", "settings": "Mus musculus; 298-26, TdT positive, 48 hour continuous exposure", "procedure": "as §3, §4, §5, §6"}, "[3]": {"molecular_target": "T1, terminal deoxynucleotidyl transferase (TdT)", "test": "TdT-catalyzed polymerization on 32P-labelled 15 MER initiator, autoradiograph (chain termination)", "type": "biochemical, calf", "settings": "ddATP as substrate, MgCl2 or CoCl2", "source_text": "as §2\nIt should be noted that the mechanism of inhibition by any of the ddNTPs upon TdT catalysis is by chain termination. […] A radiolabelled oligomer (^32 P-GTCCGTCTCTGCCTC-3') shown in Lane 1 was used as an initiator for TdT-catalyzed polymerization using: dATP (Lanes 2 and 4); or ddATP (Lanes 3 and 5 ) as substrates. Lanes 2 and 3 represent the reaction products generated in the presence of MgCl2 while Lanes 4 and 5 represent the reaction products generated in the presence of CoCl2 respectively. Each reaction product was electrophoresed on a 20% polyacrylamide gel under denaturing conditions (2.5 hours at 35 watts, 2800 volts). […] Thus, the effectiveness of chain termination by ddATP is clearly established."}, "DNA polymerase alpha": {"system": "DNA polymerase alpha", "test": "DNA polymerase alpha enzyme assay", "type": "biochemical, calf", "procedure": "as §1\nFor these studies, ddNTPs were dissolved in deionized distilled water and added to the respective reaction mixtures at time zero to give the effective final concentrations. The degree of reaction or inhibition was calculated from simultaneous control reactions. The mode of inhibition and inhibition constants were determined using Linweaver-Burke and Dixon plots. […]"}}, "note": "pIC50: −log10 of the molar value.", "data": [{"smiles": "Cc1cn([C@H]2C[C@H](N=[N+]=[N-])[C@@H](CO[P@](=O)(O)O[P@](=O)(O)OP(=O)(O)O)O2)c(=O)[nH]c1=O", "note": "[AZTTP, 3'-azido thymidine triphosphate, reference compound]", "values": [{"measurement": "pIC50", "setting": "[1]", "value": 3.88}]}, {"smiles": "OC[C@H]1O[C@@H](n2cnc3c2N=CNC[C@H]3O)[C@H](O)[C@@H]1O", "note": "[CF, coformycin]", "values": [{"measurement": "effect on cell viability", "setting": "[2]", "value": "no effect"}]}, {"smiles": "Nc1ncnc2c1ncn2[C@H]1CC[C@@H](CO)O1", "note": "[ddA, dideoxyadenosine]", "values": [{"measurement": "inhibition at 250 µM", "setting": "L1210", "value": 15, "unit": "%"}, {"measurement": "inhibition at 500 µM", "setting": "L1210", "value": 50, "unit": "%"}, {"measurement": "inhibition at 250 µM", "setting": "TdT-negative cell lines; 250 uM ddA, read-out: growth inhibition, range over TdT-negative cells", "value": "0 to 15", "unit": "%"}, {"measurement": "inhibition at 500 µM", "setting": "TdT-negative cell lines; 500 uM ddA, read-out: growth inhibition, 2 of the 3 TdT-negative lines", "value": "40 to 50", "unit": "%"}, {"measurement": "inhibition at 250 µM", "setting": "TdT-positive cell lines; 250 uM ddA, read-out: growth inhibition, range over all four TdT-positive cell lines", "value": "30 to 80", "unit": "%"}, {"measurement": "inhibition at 500 µM", "setting": "TdT-positive cell lines; 500 uM ddA, read-out: growth inhibition, range over TdT-positive lines", "value": "92 to 99", "unit": "%"}, {"measurement": "inhibition at 250 µM", "setting": "ML3", "value": 0, "unit": "%"}, {"measurement": "inhibition at 500 µM", "setting": "ML3", "value": 40, "unit": "%"}, {"measurement": "inhibition at 250 µM", "setting": "8392", "value": 0, "unit": "%"}, {"measurement": "inhibition at 500 µM", "setting": "8392", "value": 0, "unit": "%"}, {"measurement": "inhibition at 250 µM", "setting": "NALM-6", "value": 30, "unit": "%"}, {"measurement": "inhibition at 500 µM", "setting": "NALM-6", "value": 95, "unit": "%"}, {"measurement": "inhibition at 250 µM", "setting": "HPB-ALL", "value": 40, "unit": "%"}, {"measurement": "inhibition at 500 µM", "setting": "HPB-ALL", "value": 99, "unit": "%"}, {"measurement": "inhibition at 250 µM", "setting": "MOLT-4", "value": 60, "unit": "%"}, {"measurement": "inhibition at 500 µM", "setting": "MOLT-4", "value": 92, "unit": "%"}, {"measurement": "inhibition at 250 µM", "setting": "298-26", "value": 80, "unit": "%"}, {"measurement": "inhibition at 500 µM", "setting": "298-26", "value": 99, "unit": "%"}]}, {"smiles": "Nc1ncnc2c1ncn2[C@H]1CC[C@@H](COP(=O)(O)OP(=O)(O)OP(=O)(O)O)O1", "note": "[ddATP, 2',3'-dideoxyadenosine triphosphate]", "values": [{"measurement": "chain termination: residues added by TdT to 15 MER initiator (FIG. 2)", "setting": "[3]", "value": "only one residue is added"}, {"measurement": "pIC50", "setting": "[1]", "value": 5.05}, {"measurement": "effect on TdT polymerization reaction (FIG. 1)", "setting": "[1]; micromolar concentrations of ddATP", "value": "dramatically inhibits"}, {"measurement": "effect on DNA polymerase alpha enzyme activity (FIG. 1)", "setting": "DNA polymerase alpha", "value": "does not recognize"}]}, {"smiles": "Nc1ccn([C@H]2CC[C@@H](COP(=O)(O)OP(=O)(O)OP(=O)(O)O)O2)c(=O)n1", "note": "[ddCTP, dideoxycytosine triphosphate]", "values": [{"measurement": "pIC50", "setting": "[1]", "value": 4.61}]}, {"smiles": "Nc1nc2c(ncn2[C@H]2CC[C@@H](COP(=O)(O)OP(=O)(O)OP(=O)(O)O)O2)c(=O)[nH]1", "note": "[ddGTP, dideoxyguanosine triphosphate]", "values": [{"measurement": "pIC50", "setting": "[1]", "value": 4.74}]}, {"smiles": "O=c1[nH]cnc2c1ncn2[C@H]1CC[C@@H](COP(=O)(O)OP(=O)(O)OP(=O)(O)O)O1", "note": "[ddITP, dideoxyinosine triphosphate]", "values": [{"measurement": "pIC50", "setting": "[1]", "value": 4.70}]}, {"smiles": "Cc1cn([C@H]2CC[C@@H](COP(=O)(O)OP(=O)(O)OP(=O)(O)O)O2)c(=O)[nH]c1=O", "note": "[ddTTP, 2',3'-dideoxythymidine triphosphate]", "values": [{"measurement": "pIC50", "setting": "[1]", "value": 4.33}]}]}
